Reference: article PMC5218480 (PLoS ONE, 2017)

Tested on: MV-4-11 cells
Assay: Gene expression microarray analysis (Affymetrix PrimeView) and GSEA
Assay type: cell-based, human
Parameters: RFU PODN (11730768_x_at) / Fold change /veh PODN (11730768_x_at) / RFU LINC00158 (11744669_a_at) / Fold change /veh LINC00158 (11744669_a_at) / RFU DUSP10 (11751237_a_at) / Fold change /veh DUSP10 (11751237_a_at) / RFU ID3 (11757404_x_at) / Fold change /veh ID3 (11757404_x_at) / RFU PLEKHG5 (11737974_s_at) / Fold change /veh PLEKHG5 (11737974_s_at) / RFU LRRC4B (11730491_at) / Fold change /veh LRRC4B (11730491_at) / RFU GIMAP4 (11747438_a_at) / Fold change /veh GIMAP4 (11747438_a_at) / RFU KRT8 (11758183_x_at) / Fold change /veh KRT8 (11758183_x_at) / RFU CNN1 (11734310_a_at) / Fold change /veh CNN1 (11734310_a_at) / RFU VPS37D (11726825_at) / Fold change /veh VPS37D (11726825_at) / RFU C10orf10 (11716522_x_at) / Fold change /veh C10orf10 (11716522_x_at) / RFU KIR2DL2 /// KIR2DL4 /// KIR2DL5A /// KIR2DL5B /// KIR2DS1 /// KIR2DS2 /// KIR2DS3 /// KIR2DS4 /// KIR3DL3 /// KIR3DL3 /// KIR3DS1 (11738374_at) / Fold change /veh KIR2DL2 /// KIR2DL4 /// KIR2DL5A /// KIR2DL5B /// KIR2DS1 /// KIR2DS2 /// KIR2DS3 /// KIR2DS4 /// KIR3DL3 /// KIR3DL3 /// KIR3DS1 (11738374_at) / RFU C1QL1 (11718748_at) / Fold change /veh C1QL1 (11718748_at) / RFU TMPRSS4 (11747572_a_at) / Fold change /veh TMPRSS4 (11747572_a_at) / RFU HAMP (11756126_x_at) / Fold change /veh HAMP (11756126_x_at) / RFU RNFT2 (11725882_a_at) / Fold change /veh RNFT2 (11725882_a_at) / RFU NR4A2 (11747474_a_at) / Fold change /veh NR4A2 (11747474_a_at) / RFU ABCC12 (11746883_a_at) / Fold change /veh ABCC12 (11746883_a_at) / RFU TMEM136 (11760407_x_at) / Fold change /veh TMEM136 (11760407_x_at) / RFU CLDN22 /// WWC2 (11732394_at) / Fold change /veh CLDN22 /// WWC2 (11732394_at) / RFU HLA-DPB1 (11760878_x_at) / Fold change /veh HLA-DPB1 (11760878_x_at) / RFU SPINT1 (11716480_a_at) / Fold change /veh SPINT1 (11716480_a_at) / RFU GAP43 (11754022_s_at) / Fold change /veh GAP43 (11754022_s_at) / RFU A4GNT (11735810_at) / Fold change /veh A4GNT (11735810_at) / RFU PRB3 (11715151_x_at) / Fold change /veh PRB3 (11715151_x_at) / RFU TUBB4B (11761932_at) / Fold change /veh TUBB4B (11761932_at) / RFU CAPN14 (11732068_a_at) / Fold change /veh CAPN14 (11732068_a_at) / RFU TMCC2 (11721928_a_at) / Fold change /veh TMCC2 (11721928_a_at) / RFU IRGQ (11745062_a_at) / Fold change /veh IRGQ (11745062_a_at) / RFU FAM174B (11720279_a_at) / Fold change /veh FAM174B (11720279_a_at) / RFU TMPRSS4 (11748680_a_at) / Fold change /veh TMPRSS4 (11748680_a_at) / RFU FAM212B (11763350_a_at) / Fold change /veh FAM212B (11763350_a_at) / RFU PLEKHG5 (11743358_a_at) / Fold change /veh PLEKHG5 (11743358_a_at) / RFU ZSCAN30 (11745921_a_at) / Fold change /veh ZSCAN30 (11745921_a_at) / RFU CMKLR1 (11741424_a_at) / Fold change /veh CMKLR1 (11741424_a_at) / RFU LOC101060620 /// MAPK8IP1 (11723275_at) / Fold change /veh LOC101060620 /// MAPK8IP1 (11723275_at) / RFU SPTSSB (11747773_x_at) / Fold change /veh SPTSSB (11747773_x_at) / RFU PRSS12 (11739890_at) / Fold change /veh PRSS12 (11739890_at) / RFU BIN1 (11741810_x_at) / Fold change /veh BIN1 (11741810_x_at) / RFU WNT11 (11732464_a_at) / Fold change /veh WNT11 (11732464_a_at) / RFU C10orf10 (11716521_a_at) / Fold change /veh C10orf10 (11716521_a_at) / RFU C5orf56 (11738089_at) / Fold change /veh C5orf56 (11738089_at) / RFU CYB561 (11721691_x_at) / Fold change /veh CYB561 (11721691_x_at) / RFU ANKRD19P (11752326_a_at) / Fold change /veh ANKRD19P (11752326_a_at) / RFU OR2T12 /// OR2T33 /// OR2T8 (11738714_s_at) / Fold change /veh OR2T12 /// OR2T33 /// OR2T8 (11738714_s_at) / RFU VCAN (11748164_a_at) / Fold change /veh VCAN (11748164_a_at) / RFU JSRP1 (11732532_at) / Fold change /veh JSRP1 (11732532_at) / RFU KRTAP10-11 (11738290_x_at) / Fold change /veh KRTAP10-11 (11738290_x_at) / RFU MYO3A (11730013_a_at) / Fold change /veh MYO3A (11730013_a_at) / RFU EBF3 (11725865_a_at) / Fold change /veh EBF3 (11725865_a_at) / RFU CAMK2N1 (11719241_x_at) / Fold change /veh CAMK2N1 (11719241_x_at) / RFU C5orf56 (11738088_a_at) / Fold change /veh C5orf56 (11738088_a_at) / RFU OLFML3 (11715873_a_at) / Fold change /veh OLFML3 (11715873_a_at) / RFU LOC100653217 /// NTM (11731650_a_at) / Fold change /veh LOC100653217 /// NTM (11731650_a_at) / RFU MAPK11 (11762145_a_at) / Fold change /veh MAPK11 (11762145_a_at) / RFU FIZ1 (11724087_x_at) / Fold change /veh FIZ1 (11724087_x_at) / RFU OASL (11726364_x_at) / Fold change /veh OASL (11726364_x_at) / RFU SOX15 (11748057_x_at) / Fold change /veh SOX15 (11748057_x_at) / RFU CD79A (11719716_a_at) / Fold change /veh CD79A (11719716_a_at) / RFU HIST1H1D (11736915_at) / Fold change /veh HIST1H1D (11736915_at) / RFU CASKIN2 (11723855_a_at) / Fold change /veh CASKIN2 (11723855_a_at) / RFU LOC730098 (11760151_x_at) / Fold change /veh LOC730098 (11760151_x_at) / RFU OR4N2 (11742367_at) / Fold change /veh OR4N2 (11742367_at) / RFU PRRT2 (11749266_a_at) / Fold change /veh PRRT2 (11749266_a_at) / RFU SNX32 (11753110_a_at) / Fold change /veh SNX32 (11753110_a_at) / RFU CDHR5 (11726645_a_at) / Fold change /veh CDHR5 (11726645_a_at) / RFU RCAN1 (11760418_a_at) / Fold change /veh RCAN1 (11760418_a_at) / RFU FAM167A (11723789_a_at) / Fold change /veh FAM167A (11723789_a_at) / RFU FAM26E (11764081_at) / Fold change /veh FAM26E (11764081_at) / RFU ISYNA1 (11749810_s_at) / Fold change /veh ISYNA1 (11749810_s_at) / RFU ACY1 (11761880_at) / Fold change /veh ACY1 (11761880_at) / RFU 11764098_at / Fold change /veh 11764098_at / RFU SAMD14 (11745864_x_at) / Fold change /veh SAMD14 (11745864_x_at) / RFU NPB (11741838_a_at) / Fold change /veh NPB (11741838_a_at) / RFU TMPRSS6 (11731388_a_at) / Fold change /veh TMPRSS6 (11731388_a_at) / RFU KRTAP10-2 (11738614_at) / Fold change /veh KRTAP10-2 (11738614_at) / RFU ARHGAP8 /// PRR5-ARHGAP8 (11727945_x_at) / Fold change /veh ARHGAP8 /// PRR5-ARHGAP8 (11727945_x_at) / RFU KRTAP5-7 /// NADSYN1 (11734609_at) / Fold change /veh KRTAP5-7 /// NADSYN1 (11734609_at) / RFU RASL12 (11751679_a_at) / Fold change /veh RASL12 (11751679_a_at) / RFU CDKN2B (11736163_a_at) / Fold change /veh CDKN2B (11736163_a_at) / RFU PRF1 (11729649_at) / Fold change /veh PRF1 (11729649_at) / RFU, ZNF638 /// ZNF638-IT1 / Fold change vs veh, ZNF638 /// ZNF638-IT1 / RFU, PANK3 / Fold change vs veh, PANK3 / RFU, SH3YL1 / Fold change vs veh, SH3YL1 / RFU, ZEB2 / Fold change vs veh, ZEB2 / RFU, NRIP1 / Fold change vs veh, NRIP1 / RFU, PTTG1IP / Fold change vs veh, PTTG1IP / RFU, CAPN2 / Fold change vs veh, CAPN2 / RFU, MED14 / Fold change vs veh, MED14 / RFU, SNORA58 / Fold change vs veh, SNORA58 / RFU, C1orf63 / Fold change vs veh, C1orf63 / RFU, LRRFIP1 / Fold change vs veh, LRRFIP1 / RFU, NDUFAF7 / Fold change vs veh, NDUFAF7 / RFU, SLC12A2 / Fold change vs veh, SLC12A2 / RFU, IBTK / Fold change vs veh, IBTK / RFU, ESF1 / Fold change vs veh, ESF1 / Fold change vs veh, TMEM50B / RFU, TAOK1 / Fold change vs veh, TAOK1 / RFU, ACBD3 / Fold change vs veh, ACBD3 / RFU, TMA16 / Fold change vs veh, TMA16 / RFU, RWDD3 / Fold change vs veh, RWDD3 / RFU, BCAT1 / Fold change vs veh, BCAT1 / RFU, EDEM3 / Fold change vs veh, EDEM3 / RFU, TMEM33 / Fold change vs veh, TMEM33 / RFU, WDR75 / Fold change vs veh, WDR75 / RFU, AHCTF1 / Fold change vs veh, AHCTF1 / RFU, TFRC / Fold change vs veh, TFRC / RFU, ZDHHC17 / Fold change vs veh, ZDHHC17 / RFU, NOM1 / Fold change vs veh, NOM1 / RFU, ARL8B / Fold change vs veh, ARL8B / RFU, ZBTB11 / Fold change vs veh, ZBTB11 / RFU, TAMM41 / Fold change vs veh, TAMM41 / RFU, KIAA1704 /// LOC100996395 / Fold change vs veh, KIAA1704 /// LOC100996395 / RFU, ING1 / Fold change vs veh, ING1 / RFU, TRMT61B / Fold change vs veh, TRMT61B / RFU, FUBP3 / Fold change vs veh, FUBP3 / RFU, TP53 / Fold change vs veh, TP53 / RFU, TNKS2 / Fold change vs veh, TNKS2 / RFU, ZFP14 / Fold change vs veh, ZFP14 / RFU, ACTR2 / Fold change vs veh, ACTR2 / RFU, PPP3R1 / Fold change vs veh, PPP3R1 / RFU, PIK3R1 / Fold change vs veh, PIK3R1 / RFU, HNRNPA1 / Fold change vs veh, HNRNPA1 / RFU, RNF170 / Fold change vs veh, RNF170 / RFU, ZNF28 / Fold change vs veh, ZNF28 / RFU, RNGTT / Fold change vs veh, RNGTT / RFU, OGT / Fold change vs veh, OGT / RFU, BRD1 / Fold change vs veh, BRD1 / RFU, MARS / Fold change vs veh, MARS / RFU, ZNF655 / Fold change vs veh, ZNF655 / RFU, FAHD1 / Fold change vs veh, FAHD1 / RFU, BDP1 / Fold change vs veh, BDP1 / RFU, LRRCC1 / Fold change vs veh, LRRCC1 / RFU, ARID1A / Fold change vs veh, ARID1A / RFU, ZNF146 / Fold change vs veh, ZNF146 / RFU, ZNF330 / Fold change vs veh, ZNF330 / RFU, GPN3 / Fold change vs veh, GPN3 / RFU, C9orf123 / Fold change vs veh, C9orf123 / RFU, N4BP2L2 / Fold change vs veh, N4BP2L2 / RFU, ARFIP1 / Fold change vs veh, ARFIP1 / RFU, FAM179B / Fold change vs veh, FAM179B / RFU, BCL10 / Fold change vs veh, BCL10 / RFU, UHRF1BP1L / Fold change vs veh, UHRF1BP1L / RFU, BET1 / Fold change vs veh, BET1 / RFU, CNOT2 / Fold change vs veh, CNOT2 / RFU, ZNF268 / Fold change vs veh, ZNF268 / Fold change vs veh, ZNF507 / RFU, DGCR2 / Fold change vs veh, DGCR2 / RFU, WDSUB1 / Fold change vs veh, WDSUB1 / Fold change vs veh, HSP90B1 /// MIR3652 / RFU, ADSS / Fold change vs veh, ADSS / RFU, GK / Fold change vs veh, GK / RFU, ZNF148 / Fold change vs veh, ZNF148 / RFU, TAF9 / Fold change vs veh, TAF9 / RFU, SLC1A5 / Fold change vs veh, SLC1A5 / RFU, SLMO2 / Fold change vs veh, SLMO2 / RFU, ABCC4 / Fold change vs veh, ABCC4 / RFU, LOC101060439 /// RAP1B / Fold change vs veh, LOC101060439 /// RAP1B / RFU, RFX7 / Fold change vs veh, RFX7 / RFU, GTPBP10 / Fold change vs veh, GTPBP10 / RFU, CNEP1R1 / Fold change vs veh, CNEP1R1 / RFU, BIVM-ERCC5 /// ERCC5 / Fold change vs veh, BIVM-ERCC5 /// ERCC5 / RFU, ILF3 / Fold change vs veh, ILF3 / RFU 11762660_at / Fold change /veh 11762660_at / RFU VCAN (11757783_s_at) / Fold change /veh VCAN (11757783_s_at) / RFU DDX43 (11728927_at) / Fold change /veh DDX43 (11728927_at) / RFU KRT8 (11758188_x_at) / Fold change /veh KRT8 (11758188_x_at) / RFU NKD1 (11759106_at) / Fold change /veh NKD1 (11759106_at) / RFU SRD5A1 (11742802_a_at) / Fold change /veh SRD5A1 (11742802_a_at) / RFU TPSAB1 /// TPSB2 (11721975_s_at) / Fold change /veh TPSAB1 /// TPSB2 (11721975_s_at) / RFU GSTM3 (11746129_a_at) / Fold change /veh GSTM3 (11746129_a_at) / RFU IL23R (11737362_x_at) / Fold change /veh IL23R (11737362_x_at) / RFU TMEM51 (11727254_a_at) / Fold change /veh TMEM51 (11727254_a_at) / RFU PIWIL2 (11732686_x_at) / Fold change /veh PIWIL2 (11732686_x_at) / RFU ORM1 (11744905_x_at) / Fold change /veh ORM1 (11744905_x_at) / RFU CCDC152 (11743942_at) / Fold change /veh CCDC152 (11743942_at) / RFU ECM1 (11717891_a_at) / Fold change /veh ECM1 (11717891_a_at) / RFU IL23R (11748794_a_at) / Fold change /veh IL23R (11748794_a_at) / RFU TNFAIP8L3 (11732012_x_at) / Fold change /veh TNFAIP8L3 (11732012_x_at) / RFU MBOAT4 (11741988_at) / Fold change /veh MBOAT4 (11741988_at) / RFU 11764193_at / Fold change /veh 11764193_at / RFU TMEM53 (11763286_at) / Fold change /veh TMEM53 (11763286_at) / RFU MAGEB2 (11727129_at) / Fold change /veh MAGEB2 (11727129_at) / RFU TMEM200A (11744735_a_at) / Fold change /veh TMEM200A (11744735_a_at) / RFU CCDC152 (11751479_a_at) / Fold change /veh CCDC152 (11751479_a_at) / RFU FAM211A (11726209_a_at) / Fold change /veh FAM211A (11726209_a_at) / RFU RGS16 (11746705_a_at) / Fold change /veh RGS16 (11746705_a_at) / RFU VCAN (11755009_s_at) / Fold change /veh VCAN (11755009_s_at) / RFU RHOB (11743442_s_at) / Fold change /veh RHOB (11743442_s_at) / RFU RGS16 (11720943_a_at) / Fold change /veh RGS16 (11720943_a_at) / RFU RGS16 (11720944_at) / Fold change /veh RGS16 (11720944_at) / RFU, VPS4B / Fold change vs veh, VPS4B / RFU, CREB1 / Fold change vs veh, CREB1 / RFU, DNAJC13 / Fold change vs veh, DNAJC13 / RFU, GNAQ / Fold change vs veh, GNAQ / RFU, CDK5R1 / Fold change vs veh, CDK5R1 / RFU, ZRANB3 / Fold change vs veh, ZRANB3 / RFU, CUL4A / Fold change vs veh, CUL4A / RFU, CCNY / Fold change vs veh, CCNY / RFU, UFL1 / Fold change vs veh, UFL1 / RFU, COG3 / Fold change vs veh, COG3 / RFU, DIAPH2 / Fold change vs veh, DIAPH2 / RFU, SKA2 / Fold change vs veh, SKA2 / RFU, AFF3 / Fold change vs veh, AFF3 / RFU, LMF1 / Fold change vs veh, LMF1 / RFU, IPO11 / Fold change vs veh, IPO11 / RFU, DFFB / Fold change vs veh, DFFB / RFU, FOXP1 / Fold change vs veh, FOXP1 / RFU, CARD8 / Fold change vs veh, CARD8 / RFU, STRN3 / Fold change vs veh, STRN3 / RFU, ADK / Fold change vs veh, ADK / RFU, RASSF2 / Fold change vs veh, RASSF2 / RFU, WIPF1 / Fold change vs veh, WIPF1 / RFU, LARP1B / Fold change vs veh, LARP1B / RFU, RASA1 / Fold change vs veh, RASA1 / RFU, RB1 / Fold change vs veh, RB1 / RFU, PPFIA1 / Fold change vs veh, PPFIA1 / RFU, MAT2A / Fold change vs veh, MAT2A / RFU, CCT5 / Fold change vs veh, CCT5 / RFU, WDR92 / Fold change vs veh, WDR92 / RFU, CUX1 / Fold change vs veh, CUX1 / RFU, TTC7A / Fold change vs veh, TTC7A / RFU, TMEM135 / Fold change vs veh, TMEM135 / RFU, DEPTOR / Fold change vs veh, DEPTOR / RFU, CPM / Fold change vs veh, CPM / RFU, DNAJB6 / Fold change vs veh, DNAJB6 / RFU, CACNA2D3 / Fold change vs veh, CACNA2D3 / RFU, DTX4 / Fold change vs veh, DTX4 / RFU, TFCP2 / Fold change vs veh, TFCP2 / RFU, GMCL1 /// GMCL1P1 / Fold change vs veh, GMCL1 /// GMCL1P1 / RFU, AEBP2 / Fold change vs veh, AEBP2 / RFU, SNHG1 /// SNORD22 /// SNORD25 /// SNORD26 /// SNORD27 /// SNORD28 /// SNORD29 /// SNORD31 / Fold change vs veh, SNHG1 /// SNORD22 /// SNORD25 /// SNORD26 /// SNORD27 /// SNORD28 /// SNORD29 /// SNORD31 / Fold change (Aza/veh), C12orf56 (ProbeSet 11735607_a_at) / Fold change (ACY-1035/veh), C12orf56 (ProbeSet 11735607_a_at) / Fold change (Aza/veh), FGFR1OP (ProbeSet 11751329_s_at) / Fold change (ACY-1035/veh), FGFR1OP (ProbeSet 11751329_s_at) / Fold change (Aza/veh), VPS36 (ProbeSet 11739960_a_at) / Fold change (ACY-1035/veh), VPS36 (ProbeSet 11739960_a_at) / RFU SYPL1 (11715823_x_at) / Fold change /veh SYPL1 (11715823_x_at) / RFU IGFBP7 (11715501_s_at) / Fold change /veh IGFBP7 (11715501_s_at) / RFU REEP3 (11722064_at) / Fold change /veh REEP3 (11722064_at) / RFU IGLL1 (11728026_x_at) / Fold change /veh IGLL1 (11728026_x_at): dose or concentration left out as unconfirmed
Details: ProbeSet 11759094_a_at; LIST D

Nc1ccc(-c2cccs2)cc1NC(=O)c1ccc2c(c1)cc(C1CC1)n2CCN1CCOCC1 [ACY-1035]
Fold change vs veh, GNAQ: 0.89
